The target in the assay is T1, hGLP1 receptor (Homo sapiens, UniProt P43220).
T1 construct: expressed in transfected cells; host or cells: HEK (human embryonic kidney) cells co-expressing hGLP1 receptor and CRE-Luciferase
Nature of the assay: cAMP HTRF agonist assay in HEK cells co-expressing hGLP1 receptor and CRE-Luciferase. It counts as cell-based. On the procedure:
Human embryonic kidney cells (HEK) co-expressing the hGLP1 receptor and CRE-Luciferase construct were used to determine agonist potency in this assay. The cells were thawed briefly at 37° C., transferred to a sterile tube and re-suspended in complete media at 37° C. Cells were centrifuged at 1000 rpm for 5 minutes and cells collected; cells were re-suspended in assay buffer consisting of DPBS (GIBCO) with 500 μM of the phosphodiesterase inhibitor IBMX. […] The optimal cell density was determined to be 1000 cells/well; cells were added to wells in 384-well plates containing appropriate pre-prepared dilutions of compounds (test peptides or reference compound exendin-4), sealed and incubated with CO2 for 30 min. Test peptide solutions were diluted from 10 mM stock solutions; for most peptides an initial run was performed in duplicate from a maximal concentration of 1.0 μM, with 11 concentrations tested for each peptide using serial 1:3 dilution from this maximal concentration. […] The agonist assay was a homogeneous time-resolved fluorescence (HTRF) assay (Cisbio).
Following incubation of the cells for 30 minutes with test or reference peptides, 5 μL of the cAMP acceptor cAMP-d2, prepared previously as a working solution from frozen stock (1:20 dilution), was added to each well of the assay plate, along with 5 μL of anti-cAMP antibody-cryptate working solution (diluted 1:20 from frozen stock). The wells were incubated for 1 hour at room temperature, and fluorescence was then read at 665 and 615 nm with an Envision reader with TRF laser. Data were saved and analyzed using Prism software (GraphPad). Concentration-response analysis was performed using 4-parameter logistic fits of the resulting data, and EC50 values obtained for each test and reference compound.
Background: In TR-FRET formats the signal depends on donor and acceptor labels being close together.

The mark [1] stands for this setting: Table 1, cells marked (0% albumin), read-out: cAMP EC50, nM (0% albumin).
The mark [2] stands for this setting: Table 5, 0% albumin, read-out: cAMP EC50, nM (0% albumin).
Setting [3] is: cAMP EC50, nM (0.1% albumin), Table 4, 0.1% albumin.
[4] abbreviates: cAMP EC50, nM (0.1% albumin), Table 1, 0.1% albumin.
The mark [5] stands for this setting: cAMP EC50, nM (0.1% albumin), Table 2, 0.1% albumin.
Setting [6] is: cAMP EC50, nM (0.1% albumin), Table 6, 0.1% albumin.

Where two headings read alike, the source gives them in different places. Square brackets hold non-standard residues; d marks the D form. Peptide text beside a SMILES is read from it. * marks the point of attachment. Phe(2,6-F2) = N[C@@H](Cc1c(F)cccc1F)C(=O)O; Bip = N[C@@H](Cc1ccc(-c2ccccc2)cc1)C(=O)O; X2 = O=C(CCc1ccc(I)cc1)N[C@@H](CN*)C(=O)O; αMePhe(2-F) = C[C@](N)(Cc1ccccc1F)C(=O)O; Phe(2-F) = N[C@@H](Cc1ccccc1F)C(=O)O; Phe(2-Me) = Cc1ccccc1C[C@H](N)C(=O)O; hPhe = N[C@@H](CCc1ccccc1)C(=O)O; αMeP = C[C@@]1(C(=O)O)CCCN1; AEEA = NCCOCCOCC(=O)O; Aib = CC(C)(N)C(=O)O

What is called EC50 is the concentration at which the effect is half-maximal.

T1 sequence (P43220 24-463): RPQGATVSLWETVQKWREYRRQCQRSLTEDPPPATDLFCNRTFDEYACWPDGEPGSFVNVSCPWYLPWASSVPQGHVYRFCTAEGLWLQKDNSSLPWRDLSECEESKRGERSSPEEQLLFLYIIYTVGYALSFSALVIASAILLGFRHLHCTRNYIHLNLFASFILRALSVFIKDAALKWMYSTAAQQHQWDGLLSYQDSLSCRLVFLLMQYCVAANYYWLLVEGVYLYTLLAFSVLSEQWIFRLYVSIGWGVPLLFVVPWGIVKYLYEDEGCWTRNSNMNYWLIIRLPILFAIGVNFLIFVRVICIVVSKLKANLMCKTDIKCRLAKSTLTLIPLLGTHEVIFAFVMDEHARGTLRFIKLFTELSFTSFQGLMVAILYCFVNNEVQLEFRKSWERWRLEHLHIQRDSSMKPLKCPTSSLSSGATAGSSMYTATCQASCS

With `C[C@H](NC(=O)[C@@H](NC(=O)CNC(=O)[C@H](CCC(=O)O)NC(=O)C(C)(C)NC(=O)[C@@H](N)Cc1c[nH]cn1)[C@@H](C)O)C(=O)N[C@H](C(=O)N[C@@H](CO)C(=O)N[C@@H](CC(=O)O)C(=O)N[C@@H](Cc1ccc(-c2ccccc2)cc1)C(=O)N[C@@H](Cc1ccc(-c2ccccc2)cc1)C(N)=O)[C@@H](C)O` [3-19, H2N-His-Aib-Glu-Gly-Thr-Ala-Thr-Ser-Asp-Bip-Bip-C(O)NH2] (H-H[Aib]EGTATSD[Bip][Bip]-NH2), the 50% effective concentration (EC50) under setting [1] was 2800 nM. Turning to `C[C@@H](O)[C@H](NC(=O)CNC(=O)[C@H](CCC(=O)O)NC(=O)C(C)(C)NC(=O)[C@@H](N)Cc1c[nH]cn1)C(=O)N[C@@](C)(Cc1ccccc1F)C(=O)N[C@H](C(=O)N[C@@H](CO)C(=O)N[C@@H](CC(=O)O)C(=O)N[C@@H](CCc1ccccc1)C(=O)N[C@@H](Cc1ccc(-c2ccccc2)cc1)C(N)=O)[C@@H](C)O` [1-3, H2N-His-Aib-Glu-Gly-Thr-α-MePhe(2-F)-Thr-Ser-Asp-Hph-Bip-C(O)NH2] (H-H[Aib]EGT[αMePhe(2-F)]TSD[hPhe][Bip]-NH2), the concentration for a half-maximal effect (EC50) under setting [2] came to 11 nM.

On to `C[C@@H](O)[C@H](NC(=O)CNC(=O)[C@H](CCC(=O)O)NC(=O)C(C)(C)NC(=O)[C@H](Cc1c[nH]cn1)NC(=O)[C@@H]1CCCN1)C(=O)N[C@@H](Cc1ccccc1)C(=O)N[C@H](C(=O)N[C@@H](CO)C(=O)N[C@@H](CC(=O)O)C(=O)N[C@@H](Cc1ccc(-c2ccccc2)cc1)C(=O)N[C@@H](Cc1ccc(-c2ccccc2)cc1)C(N)=O)[C@@H](C)O` [2-4, H2N-Pro-His-Aib-Glu-Gly-Thr-Phe-Thr-Ser-Asp-Bip-Bip-C(O)NH2] (H-PH[Aib]EGTFTSD[Bip][Bip]-NH2), for which the 50% effective concentration (EC50) under setting [3] was 14.7 nM. For the compound `C[C@@H](O)[C@H](NC(=O)CNC(=O)[C@H](CCC(=O)O)NC(=O)C(C)(C)NC(=O)[C@@H](N)Cc1c[nH]cn1)C(=O)N[C@@H](Cc1c(F)cccc1F)C(=O)N[C@H](C(=O)N[C@@H](CO)C(=O)N[C@@H](CC(=O)O)C(=O)N[C@@H](Cc1ccc(-c2ccccc2)cc1)C(=O)N[C@@H](Cc1ccc(-c2ccccc2)cc1)C(N)=O)[C@@H](C)O` [3-8, H2N-His-Aib-Glu-Gly-Thr-Phe(2,6F)-Thr-Ser-Asp-Bip-Bip-C(O)NH2] (H-H[Aib]EGT[Phe(2,6-F2)]TSD[Bip][Bip]-NH2), the EC50 under setting [1] was determined as 0.16 nM.

Regarding `C[C@@H](O)[C@H](NC(=O)CNC(=O)[C@H](CCC(=O)O)NC(=O)C(C)(C)NC(=O)[C@@H](N)Cc1c[nH]cn1)C(=O)N[C@@](C)(Cc1ccccc1F)C(=O)N[C@H](C(=O)N[C@@H](CO)C(=O)N[C@@H](CC(=O)O)C(=O)N[C@@H](Cc1ccc(-c2ccccc2)cc1)C(=O)N[C@@H](CCc1ccccc1)C(=O)O)[C@@H](C)O` [4-1, H2N-His-Aib-Glu-Gly-Thr-α-MePhe(2-F)-Thr-Ser-Asp-Bip-Hph-C(O)OH] (H-H[Aib]EGT[αMePhe(2-F)]TSD[Bip][hPhe]-OH), the EC50 under setting [2] was 272 nM. For the same compound, the “fold lower potency than the parent peptide (1-4)” value (relative to parent 1-4) is on record as “about 30 fold”.

Turning to `C[C@@H](O)[C@H](NC(=O)CNC(=O)[C@H](CCC(=O)O)NC(=O)C(C)(C)NC(=O)[C@@H](N)Cc1c[nH]cn1)C(=O)N[C@@H](Cc1ccccc1F)C(=O)N[C@H](C(=O)N[C@@H](CO)C(=O)N[C@@H](CC(=O)O)C(=O)N[C@@H](Cc1ccc(-c2ccccc2)cc1)C(=O)N[C@@H](Cc1ccc(-c2ccccc2)cc1)C(N)=O)[C@@H](C)O` [3-1, H2N-His-Aib-Glu-Gly-Thr-Phe(2-F)-Thr-Ser-Asp-Bip-Bip-C(O)NH2] (H-H[Aib]EGT[Phe(2-F)]TSD[Bip][Bip]-NH2), under setting [4], the concentration for a half-maximal effect (EC50) was found to be 0.32 nM.

In turn, `C[C@@H](O)[C@H](NC(=O)CNC(=O)[C@H](CCC(=O)O)NC(=O)[C@@H]1CCCN1C(=O)[C@@H](N)Cc1c[nH]cn1)C(=O)N[C@@](C)(Cc1ccccc1F)C(=O)N[C@H](C(=O)N[C@@H](CO)C(=O)N[C@@H](CC(=O)O)C(=O)N[C@@H](Cc1ccc(-c2ccccc2)cc1)C(=O)N[C@@H](Cc1ccc(-c2ccccc2)cc1)C(N)=O)[C@@H](C)O` [3-38, H2N-His-Pro-Glu-Gly-Thr-α-MePhe(2-F)-Thr-Ser-Asp-Bip-Bip-C(O)NH2] (H-HPEGT[αMePhe(2-F)]TSD[Bip][Bip]-NH2) registered a concentration for a half-maximal effect (EC50) under setting [3] of 0.04 nM. `C[C@H](NC(=O)CNC(=O)[C@H](CCC(=O)O)NC(=O)C(C)(C)NC(=O)[C@@H](N)Cc1c[nH]cn1)C(=O)N[C@@H](Cc1ccccc1F)C(=O)N[C@H](C(=O)N[C@@H](CO)C(=O)N[C@@H](CC(=O)O)C(=O)N[C@@H](Cc1ccc(-c2ccccc2)cc1)C(=O)N[C@@H](Cc1ccc(-c2ccccc2)cc1)C(N)=O)[C@@H](C)O` [3-24, H2N-His-Aib-Glu-Gly-Ala-Phe(2-F)-Thr-Ser-Asp-Bip-Bip-C(O)NH2] (H-H[Aib]EGA[Phe(2-F)]TSD[Bip][Bip]-NH2) displayed an EC50 under setting [5] of 28.1 nM.

Turning to `C[C@@H](O)[C@H](NC(=O)CNC(=O)[C@H](CCC(=O)O)NC(=O)[C@]1(C)CCCN1C(=O)[C@@H](N)Cc1c[nH]cn1)C(=O)N[C@@](C)(Cc1ccccc1F)C(=O)N[C@H](C(=O)N[C@@H](CO)C(=O)N[C@@H](CC(=O)O)C(=O)N[C@@H](Cc1ccc(-c2ccccc2)cc1)C(=O)N[C@@H](Cc1ccc(-c2ccccc2)cc1)C(=O)NCCOCCOCC(=O)NCCOCCOCC(=O)NCCOCCOCC(=O)NC[C@H](NC(=O)CCc1ccc(I)cc1)C(=O)O)[C@@H](C)O` [4-59, H2N-His-α-MePro -Glu-Gly-Thr-α-MePhe(2-F)-Thr-Ser-Asp-Bip-Bip-C(O)NH-RY15] (H-H[αMeP]EGT[αMePhe(2-F)]TSD[Bip][Bip][AEEA][AEEA][AEEA]-X2), under setting [6], the EC50 came out at 1.3 nM. Under setting [6], `C[C@@H](O)[C@H](NC(=O)CNC(=O)[C@H](CCC(=O)O)NC(=O)C(C)(C)NC(=O)[C@@H](N)Cc1c[nH]cn1)C(=O)N[C@@](C)(Cc1ccccc1F)C(=O)N[C@H](C(=O)N[C@@H](CO)C(=O)N[C@@H](CC(=O)O)C(=O)N[C@@H](Cc1ccc(-c2ccccc2)cc1)C(=O)N[C@@H](Cc1ccc(-c2ccccc2)cc1)C(=O)NCCOCCOCC(=O)NCCOCCOCC(=O)NCCOCCOCC(=O)N[C@@H](CCCCN)C(N)=O)[C@@H](C)O` [4-57, H2N-His-Aib-Glu-Gly-Thr-α-MePhe(2-F)-Thr-Ser-Asp-Bip-Bip-C(O)NH-RY13] (H-H[Aib]EGT[αMePhe(2-F)]TSD[Bip][Bip][AEEA][AEEA][AEEA]K-NH2) registered an EC50 of 14 nM.

With `C[C@@H](O)[C@H](NC(=O)CNC(=O)[C@H](CCC(=O)O)NC(=O)C(C)(C)NC(=O)[C@H](Cc1c[nH]cn1)NC(=O)[C@@H](N)CCCNC(=N)N)C(=O)N[C@@H](Cc1ccccc1)C(=O)N[C@H](C(=O)N[C@@H](CO)C(=O)N[C@@H](CC(=O)O)C(=O)N[C@@H](Cc1ccc(-c2ccccc2)cc1)C(=O)N[C@@H](Cc1ccc(-c2ccccc2)cc1)C(N)=O)[C@@H](C)O` [2-1, H2N-Arg-His-Aib-Glu-Gly-Thr-Phe-Thr-Ser-Asp-Bip-Bip-C(O)NH2] (H-RH[Aib]EGTFTSD[Bip][Bip]-NH2), the EC50 under setting [3] is 10.6 nM. `Cc1ccccc1C[C@H](NC(=O)[C@@H](NC(=O)CNC(=O)[C@H](CCC(=O)O)NC(=O)C(C)(C)NC(=O)[C@@H](N)Cc1c[nH]cn1)[C@@H](C)O)C(=O)N[C@H](C(=O)N[C@@H](CO)C(=O)N[C@@H](CC(=O)O)C(=O)N[C@@H](Cc1ccc(-c2ccccc2)cc1)C(=O)N[C@@H](Cc1ccc(-c2ccccc2)cc1)C(N)=O)[C@@H](C)O` [3-4, H2N-His-Aib-Glu-Gly-Thr-Phe(2-CH3)-Thr-Ser-Asp-Bip-Bip-C(O)NH2] (H-H[Aib]EGT[Phe(2-Me)]TSD[Bip][Bip]-NH2) yielded an EC50 under setting [4] of 9.55 nM.

Compound `C[C@@H](O)[C@H](NC(=O)CNC(=O)[C@H](CCC(=O)O)NC(=O)C(C)(C)NC(=O)[C@@H](N)Cc1c[nH]cn1)C(=O)N[C@@](C)(Cc1ccccc1F)C(=O)N[C@H](C(=O)N[C@@H](CO)C(=O)N[C@@H](CC(=O)O)C(=O)N[C@@H](Cc1ccc(-c2ccccc2)cc1)C(=O)N[C@@H](Cc1ccc(-c2ccccc2)cc1)C(=O)NCCOCCOCC(=O)NCCOCCOCC(=O)N[C@@H](CCCCN)C(N)=O)[C@@H](C)O` [4-30, H2N-His-Aib-Glu-Gly-Thr-α-MePhe(2F)-Thr-Ser-Asp-Bip-Bip-C(O)(AEEA)2-Lys-NH2] (H-H[Aib]EGT[αMePhe(2-F)]TSD[Bip][Bip][AEEA][AEEA]K-NH2) showed an EC50 under setting [6] of 14 nM. With `C[C@H](NC(=O)C(C)(C)NC(=O)[C@@H](N)Cc1c[nH]cn1)C(=O)NCC(=O)N[C@H](C(=O)N[C@@H](Cc1ccccc1F)C(=O)N[C@H](C(=O)N[C@@H](CO)C(=O)N[C@@H](CC(=O)O)C(=O)N[C@@H](Cc1ccc(-c2ccccc2)cc1)C(=O)N[C@@H](Cc1ccc(-c2ccccc2)cc1)C(N)=O)[C@@H](C)O)[C@@H](C)O` [3-22, H2N-His-Aib-Ala-Gly-Thr-Phe(2-F)-Thr-Ser-Asp-Bip-Bip-C(O)NH2] (H-H[Aib]AGT[Phe(2-F)]TSD[Bip][Bip]-NH2), the response under setting [5] was half-maximal at 20.3 nM (EC50).

(Values after patent US20230015478A1, “GLP-1 RECEPTOR AGONISTS HAVING IMPROVED PHARMACOLOGICAL AND DRUG DELIVERY PROPERTIES” (priority 2021, published 2023).)
